{"source": "paper PMC10615177", "about": "(ACS infectious diseases, 2023)", "key": {"[1]": {"tested_on": "T. cruzi Dm28c epimastigotes", "experiment": "T. cruzi epimastigote growth inhibition", "format": "cell-based, Trypanosoma cruzi", "conditions": "Trypanosoma cruzi, read-out: T. cruzi IC50 (EPI)"}, "[2]": {"tested_on": "M. abscessus rough variant", "experiment": "microbe, parasite or virus in culture", "format": "cell-based", "conditions": "Mycobacteroides abscessus, read-out: Ma(R) MIC"}, "[3]": {"conditions": "dog, in vivo; cited from earlier work"}, "[4]": {"experiment": "DSC of DSPG bilayers with inhibitor", "format": "physicochemical"}, "[5]": {"tested_on": "M. abscessus smooth variant", "experiment": "microbe, parasite or virus in culture", "format": "cell-based", "conditions": "Mycobacteroides abscessus"}, "in vitro [6]": {"experiment": "in vitro", "conditions": "human"}, "[7]": {"tested_on": "M. abscessus strain PIPD1^R1 (A309P mutation in MmpL3)"}, "E. coli": {"tested_on": "E. coli", "experiment": "E. coli growth inhibition", "format": "cell-based, Escherichia coli", "conditions": "Escherichia coli, read-out: Ec IC50"}, "M. tuberculosis HN878": {"tested_on": "M. tuberculosis HN878", "experiment": "M. tuberculosis HN878 growth inhibition", "format": "cell-based, Mycobacterium tuberculosis", "conditions": "Mycobacterium tuberculosis"}, "M. smegmatis": {"tested_on": "M. smegmatis", "experiment": "M. smegmatis cell growth inhibition", "format": "cell-based, Mycobacterium smegmatis", "conditions": "Mycolicibacterium smegmatis, read-out: Ms IC50, M. smegmatis"}, "[8]": {"tested_on": "T. brucei bloodstream forms", "experiment": "T. brucei bloodstream form growth inhibition", "format": "cell-based, Trypanosoma brucei", "conditions": "Trypanosoma brucei, read-out: T. brucei IC50"}, "M. tuberculosis H37Rv": {"tested_on": "M. tuberculosis H37Rv", "experiment": "M. tuberculosis H37Rv growth inhibition", "format": "cell-based, Mycobacterium tuberculosis", "conditions": "Mycobacterium tuberculosis, H37RV, read-out: Mtb H37Rv MIC"}, "in vitro [9]": {"experiment": "in vitro", "conditions": "human", "remark": "listed apart in the source"}, "[10]": {"experiment": "DSC of DMPC bilayers with inhibitor", "format": "physicochemical"}, "[11]": {"tested_on": "Plasmodium falciparum asexual blood stages", "experiment": "P. falciparum asexual blood stage", "format": "cell-based"}, "[12]": {"tested_on": "L. mexicana promastigotes", "experiment": "L. mexicana promastigote growth inhibition", "format": "cell-based, Leishmania mexicana"}, "M. tuberculosis Erdman": {"tested_on": "M. tuberculosis Erdman", "experiment": "M. tuberculosis Erdman growth inhibition", "format": "cell-based, Mycobacterium tuberculosis", "conditions": "Mycobacterium tuberculosis, ERDMAN, read-out: Mtb Erdman MIC"}, "[13]": {"conditions": "[14C-SQ109], mice; cited from earlier work"}, "[14]": {"tested_on": "T. cruzi Dm28c intracellular amastigotes", "experiment": "T. cruzi intracellular amastigote inhibition", "format": "cell-based, Trypanosoma cruzi", "conditions": "Trypanosoma cruzi, U2OS, read-out: T. cruzi IC50 (PAR)"}, "Bacillus subtilis": {"tested_on": "Bacillus subtilis", "experiment": "B. subtilis growth inhibition", "format": "cell-based", "conditions": "Bacillus subtilis, read-out: Bs IC50"}, "[15]": {"biological_target": "M. tuberculosis MmpL3 (MtMmpL3) (Mycobacterium tuberculosis, UniProt P9WJV5)", "sequence (P9WJV5 whole entry)": "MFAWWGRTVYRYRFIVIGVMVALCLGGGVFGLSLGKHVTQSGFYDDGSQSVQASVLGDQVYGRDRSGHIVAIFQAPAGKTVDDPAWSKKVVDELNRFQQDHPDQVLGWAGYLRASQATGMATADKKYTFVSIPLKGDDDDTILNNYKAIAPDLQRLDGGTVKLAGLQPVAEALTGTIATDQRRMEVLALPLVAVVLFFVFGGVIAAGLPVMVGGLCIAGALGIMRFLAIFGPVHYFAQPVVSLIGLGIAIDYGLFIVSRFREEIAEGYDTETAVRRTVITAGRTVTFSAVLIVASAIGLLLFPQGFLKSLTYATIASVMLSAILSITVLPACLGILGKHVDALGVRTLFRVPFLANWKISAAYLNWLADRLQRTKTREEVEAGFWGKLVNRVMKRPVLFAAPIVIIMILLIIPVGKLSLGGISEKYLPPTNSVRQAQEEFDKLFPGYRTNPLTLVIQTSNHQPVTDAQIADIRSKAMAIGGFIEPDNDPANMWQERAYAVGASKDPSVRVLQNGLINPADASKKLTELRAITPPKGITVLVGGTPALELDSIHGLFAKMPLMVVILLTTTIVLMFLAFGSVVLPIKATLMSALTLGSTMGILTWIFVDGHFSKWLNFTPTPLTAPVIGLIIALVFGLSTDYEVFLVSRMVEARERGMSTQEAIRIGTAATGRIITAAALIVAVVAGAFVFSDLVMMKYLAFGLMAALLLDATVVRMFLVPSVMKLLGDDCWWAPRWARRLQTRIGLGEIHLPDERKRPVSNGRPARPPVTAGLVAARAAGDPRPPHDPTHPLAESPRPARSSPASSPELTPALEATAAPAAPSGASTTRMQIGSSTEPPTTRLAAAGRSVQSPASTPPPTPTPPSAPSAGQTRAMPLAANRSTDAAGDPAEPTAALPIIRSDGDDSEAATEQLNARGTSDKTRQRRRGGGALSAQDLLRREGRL", "experiment": "Surface plasmon resonance binding to MmpL3", "conditions": "two-state model"}, "[16]": {"conditions": "rat, in vivo; cited from earlier work"}, "[17]": {"tested_on": "L. donovani promastigotes", "experiment": "L. donovani promastigote growth inhibition", "format": "cell-based, Leishmania donovani", "conditions": "Leishmania donovani, read-out: L. donovani IC50"}, "[18]": {"conditions": "10 wt % inhibitor, PBS pH 7.4, heating"}}, "note": "Read-outs that look alike come from different tables or passages of the source."}
{"smiles": "CC(C)=CCC/C(C)=C/CNCCNC1C2CC3CC(C2)CC1C3", "note": "(centres unmarked) [Compound 8a, N-geranyl-N΄-(2-adamantyl)ethane-1,2-diamine, reference compound]", "values": [{"measurement": "IC50", "setting": "[1]", "result": "6.8 ± 2", "unit": "µM"}, {"measurement": "MIC", "setting": "[2]", "result": 22, "unit": "µM"}, {"measurement": "half-life", "setting": "[3]", "result": "> 5", "unit": "h"}, {"measurement": "Tm (main transition)", "setting": "[4]; [18]", "result": 50.4, "unit": "°C"}, {"measurement": "ΔH", "setting": "[4]; [18]", "result": 54.0, "unit": "kJ/mol"}, {"measurement": "ΔT1/2", "setting": "[4]; [18]", "result": 2.1, "unit": "°C"}, {"measurement": "Broadening of main transition peak ΔΤ1/2 compared to pure DSPG", "setting": "[4]; heating", "result": "0.2–1.6 °C"}, {"measurement": "Decrease of Tm compared to DSPG alone", "setting": "[4]; heating", "result": "3–4 °C"}, {"measurement": "MIC", "setting": "[5]; read-out: MIC against M. abscessus", "result": "22 to 44", "unit": "µM"}, {"measurement": "MIC", "setting": "[5]; read-out: Ma(S) MIC", "result": 44, "unit": "µM"}, {"measurement": "CC50", "setting": "in vitro [6]", "result": "4.1 ± 0.2", "unit": "µM"}, {"measurement": "Resistance of A309P MmpL3 mutant", "setting": "[7]", "result": "not resistant"}, {"measurement": "IC50", "setting": "E. coli", "result": 15, "unit": "µM"}, {"measurement": "MIC", "setting": "M. tuberculosis HN878; HN878, read-out: MIC against M. tuberculosis", "result": "0.3 to 1", "unit": "µM"}, {"measurement": "IC50", "setting": "M. tuberculosis HN878; HN878, read-out: Mtb HN878 IC50, dose-response curves", "result": "270 ± 20", "unit": "nM"}, {"measurement": "MIC", "setting": "M. tuberculosis HN878; HN878, read-out: Mtb HN878 MIC", "result": 0.4, "unit": "µM"}, {"measurement": "IC50", "setting": "M. smegmatis", "result": "~2400", "unit": "nM"}, {"measurement": "IC50", "setting": "[8]", "result": "910 ± 30", "unit": "nM"}, {"measurement": "MIC", "setting": "M. tuberculosis H37Rv", "result": 1.8, "unit": "µM"}, {"measurement": "viability at 20 µM", "setting": "in vitro [9]", "result": 97, "unit": "%"}, {"measurement": "Tm (main transition)", "setting": "[10]; [18]", "result": 20.6, "unit": "°C"}, {"measurement": "ΔH", "setting": "[10]; [18]", "result": 23.3, "unit": "kJ/mol"}, {"measurement": "ΔT1/2", "setting": "[10]; [18]", "result": 2.6, "unit": "°C"}, {"measurement": "Decrease of Tm compared to DMPC without inhibitor", "setting": "[10]; heating", "result": "3–4 °C"}, {"measurement": "IC50", "setting": "[11]; Plasmodium falciparum, read-out: PfABS IC50 (μM ± S.E.), asexual blood stages", "result": 1.6, "unit": "µM"}, {"measurement": "IC50", "setting": "[11]; read-out: PfABS IC50 (μM ± S.E.), asexual blood stages", "result": "1.58 ± 0.2", "unit": "µM"}, {"measurement": "IC50", "setting": "[12]; Leishmania mexicana, read-out: L. mexicana IC50, promastigotes", "result": 500, "unit": "nM"}, {"measurement": "IC50", "setting": "[12]; read-out: L. mexicana IC50, promastigotes", "result": "730 ± 200", "unit": "nM"}, {"measurement": "MIC", "setting": "M. tuberculosis Erdman", "result": 1.8, "unit": "µM"}, {"measurement": "half-life", "setting": "[13]", "result": 5, "unit": "h"}, {"measurement": "IC50", "setting": "[14]", "result": "740 ± 40", "unit": "nM"}, {"measurement": "IC50", "setting": "Bacillus subtilis", "result": 16, "unit": "µM"}, {"measurement": "ka1", "setting": "[15]", "result": 429.8, "unit": "M⁻¹ s⁻¹"}, {"measurement": "ka2", "setting": "[15]", "result": 0.005315, "unit": "s⁻¹"}, {"measurement": "kd1", "setting": "[15]", "result": 1.098, "unit": "s⁻¹"}, {"measurement": "kd2", "setting": "[15]", "result": 0.02222, "unit": "s⁻¹"}, {"measurement": "half-life", "setting": "[16]", "result": "> 5", "unit": "h"}, {"measurement": "IC50", "setting": "[17]", "result": "2000 ± 100", "unit": "nM"}]}
